Test results: patent US6451807B1, “Methods of treating sexual dysfunction in an individual suffering from a retinal disease, class 1 congestive heart failure, or myocardial infarction using a PDE5 inhibitor” (Lilly Icos, LLC., priority 1999, dated 2002)

Test system: men with mild to severe erectile dysfunction
Experiment: Randomized, double-blind, placebo-controlled on demand study in male erectile dysfunction (Example 7)
Type: in vivo, human
Conditions: for patients who rated their ability to maintain an erection (IIEF Question 4) during intercourse as almost always or always / patients who rated their penetration ability (IIEF Question 3) as almost always or always: at endpoint
Procedure: A third clinical study was a randomized, double-blind, placebo-controlled study using a compound of structural formula (I) (Study Drug) administered “on demand” to patients with male erectile dysfunction. The Study Drug was administered over a period of eight weeks in the treatment of male erectile dysfunction (ED). Erectile dysfunction (ED) is defined as the persistent inability to attain and/or maintain an erection adequate to permit satisfactory sexual performance. “On demand” dosing is defined as intermittent administration of Study Drug prior to expected sexual activity. The study population consisted of 212 men, at least 18 years of age, with mild to severe erectile dysfunction. The Study Drug was orally administered as tablets of coprecipitate made in accordance with Butler U.S. Pat. No. 5,985,326. […] Treatment with all nitrates, azole antifungals (e.g., ketoconazole or itraconazole), warfarin, erythromycin, or antiandrogens was not allowed at any time during the study. No other approved or experimental medications, treatments, or devices used to treat ED were allowed. Forty-one subjects were administered a placebo. The two primary efficacy variables were the ability of a subject to penetrate their partner and their ability to maintain an erection during intercourse, as measured by the International Index of Erectile Function (IIEF). The IIEF Questionnaire contains fifteen questions, and is a brief, reliable measure of erectile function. See R. C. Rosen et al., Urology, 49, pp. 822-830 (1997). Secondary efficacy variables were IIEF domain scores for erectile function, orgasmic function, sexual desire, intercourse satisfaction, and overall satisfaction; the patient's ability to achieve an erection, ability to insert their penis into their partner's vagina, completion of intercourse with ejaculation, satisfaction with the hardness of their erection, and overall satisfaction, all as measured by the Sexual Encounter Profile (SEP) diary; and a global assessment question asked at the end of the treatment period. The SEP is a patient diary instrument documenting each sexual encounter during the course of the study. The safety analysis of the study included all enrolled subjects, and was assessed by evaluating all reported adverse events, and changes in clinical laboratory values, vital signs, physical examination results, and electrocardiogram results.

[1] = 2 to 25 mg on demand, eight weeks

`CN1CC(=O)N2[C@H](c3ccc4c(c3)OCO4)c3[nH]c4ccccc4c3C[C@@H]2C1=O` [Compound 5, (6R-trans)-6-(1,3-benzodioxol-5-yl)-2,3,6,7,12,12a-hexahydro-2-methylpyrazino[1′,2′:1,6]pyrido[3,4-b]indole-1,4-dione] was tested, and the “patients who rated their ability to maintain an erection (IIEF Question 4) during intercourse as almost always or always” value (“patients who rated their ability” below) (2 mg group) was 19.5%, the “patients who rated their penetration ability (IIEF Question 3) as almost always or always” value (2 mg group) was 38.1% and the “sexual performance of men with erectile dysfunction (IIEF, patient diaries, global assessment)” value (2 mg, 5 mg, 10 mg and 25 mg taken on demand) was “significant improvement, relative to placebo”. The “patients who rated their ability” value (5 mg group) was 32.6%, the “patients who rated their penetration ability (IIEF Question 3) as almost always or always” value (5 mg group) was 48.8% and the “patients who rated their ability” value (10 mg group) was 39.0%. The “patients who rated their penetration ability (IIEF Question 3) as almost always or always” value (10 mg group) was 51.2%, the “patients who rated their ability” value (25 mg group) was 69.0% and the “patients who rated their penetration ability (IIEF Question 3) as almost always or always” value (25 mg group) was 83.7%. For the same compound, the “adverse events related to color vision disturbances” value [1] was “no adverse events related to color vision disturbances were reported”, the “severity of adverse events” value [1] was “mild or moderate in severity” and the “change in penetration ability versus placebo (IIEF Question 3)” value (all dose levels (2, 5, 10, 25 mg)) was “statistically significant differences”. The “change in penetration ability versus placebo (comparison reported for IIEF Question 4)” value (the three higher dose levels) was “statistically significant differences”.
